Consider 18 compounds from patent US7763648B2, “Oxa-steroids derivatives as selective progesterone receptor modulators” (Janssen Pharmaceutica N.V., priority 2006, dated 2010).

pIC50: −log10 of the molar value.

Test [1] deals with T47D human breast cancer cells. In words: T47D Human Breast Cancer Cells Assay (alkaline phosphatase). In kind it is cell-based. Conditions: 24 h with test compound, luminescence. How it is done:
T47D Human Breast Cancer Cells Assay
T47D human breast cancer cells were grown in RPMI medium without phenol red (Invitrogen) containing 10% (v/v) heat-inactivated fetal bovine serum (FBS; Hyclone), 1% (v/v) penicillin-streptomycin (Invitrogen), 1% (w/v) glutamine (Invitrogen), and […] insulin (Sigma). Incubation conditions were 37° C. in a humidified 5% (v/v) carbon dioxide environment.
The cells were plated in 96-well tissue culture plates at 10,000 cells per well in assay medium [RPMI medium without phenol red (Invitrogen) containing 5% (v/v) charcoal-treated FBS (Hyclone) and 1% (v/v) penicillin-streptomycin (Invitrogen)]. Two days later, the medium was decanted and test compound or control were added at a final concentration of 0.1% (v/v) dimethyl sulfoxide in fresh assay medium. Twenty-four hours later, an alkaline phosphatase assay was performed using a SEAP kit (BD Biosciences Clontech, Palo Alto, Calif.). Briefly, the medium was decanted and the cells were fixed for 30 minutes at room temperature with 5% (v/v) formalin (Sigma). The cells were washed once with room temperature Hank's buffered saline solution (Invitrogen). Equal volumes (0.05 mL) of 1× Dilution Buffer, Assay Buffer and 1:20 substrate/enhancer mixture were then added. After 1 hour incubation at room temperature in the dark, the lysate was transferred to a white 96-well plate (Dynex) and luminescence was read using a LuminoSkan Ascent (Thermo Electron, Woburn, Mass.).

The subject of test [2] is A549 Human lung carcinoma cells. In words: A549 Human Lung Cell Assay (transfected, dexamethasone challenge, Luc-assay). In kind it is cell-based. Conditions: Dexamathasone challenge, 24 h. How it is done:
A549 Human Lung Cell Assay
A549 Human lung carcinoma cells were grown in F-12K Nutrient Mixture containing 10% (v/v) fetal bovine serum (FBS; Invitrogen), 2 mM glutamine and 0.15% sodium dicarbonate (Invitrogen).
A549 cells were split 1 to 3 in 175 cm tissue culture flask. The cells were incubated at 37° C. in CO2 incubator until the cells were 95% confluent (typically 24-30 hours).
The following solutions were prepared in sterile tubes: (a) Solution A: 1.5 μg/ml of DNA in 8.5 ml OPTI-MEM I Reduced Serum Medium. (GIBCO cat# 31985) and (b) Solution B: 6 μl/ml of DMRIE-C Reagent into […] OPTI-MEM I. The two solutions were combined and mixed gently, then incubated at room temperature for 40 minutes.
The A549 cells prepared above were washed with […] of OPTI-MEM I. The medium was removed and 17 ml of the lipid-DNA complex solution was overlayed onto cells. The cells ere then incubated for 16 h at 37° C. in CO2 incubator. The DNA-containing medium was removed and 30 ml of growth medium was added. (5% Charcoal treated FBS) After 5-6 h, the cells were seeded in a 96 well plate and the cells incubated overnight at 37° C. in CO2 incubator.
To each well was then added 5 μl of test compounds and the cells incubated at 37° C. for 10 min. 5 μL of Dexamathasone (CAS [50-02-2]), was then added to each well for challenger and the cells incubated at 37° C. in CO2 incubator for 24 h. 100 μl of Luc-assay buffer was then added into each cell well and the cells incubated for 30 min at room temperature. A 150 μL sample from each well was then transferred into a DYNEX Microlitel plate and read on Top-counter.

Turning to `CN(C)c1ccc([C@H]2C[C@@]3(C)[C@@H](CC[C@@]3(O)C#Cc3ccccc3Br)[C@@H]3OCC4=CC(=O)CCC4=C32)cc1` [Compound 21, 17-(2-Bromo-phenylethynyl)-11-(4-dimethylamino-phenyl)-17-hydroxy-13-methyl-1,2,8,11,12,13,14,15,16,17-decahydro-6H-7-oxa-cyclopenta[a]phenanthren-3-one], the values for the pIC50 in test [1] and in test [2] were 8.07 and 7.20, respectively.

Regarding `CN(C)c1ccc([C@H]2C[C@@]3(C)[C@@H](CC[C@@]3(O)C#Cc3cccc(Cl)c3)[C@@H]3OCC4=CC(=O)CCC4=C32)cc1` [Compound 20, 17-(3-Chloro-phenylethynyl)-11-(4-dimethylamino-phenyl)-17-hydroxy-13-methyl-1,2,8,11,12,13,14,15,16,17-decahydro-6H-7-oxa-cyclopenta[a]phenanthren-3-one], the results for the pIC50 in test [1] and in test [2] were 7.90 and 7.31, respectively.

As for `CN(C)c1ccc([C@H]2C[C@@]3(C)[C@@H](CC[C@@]3(O)C#Cc3cc(F)cc(F)c3)[C@@H]3OCC4=CC(=O)CCC4=C32)cc1` [Compound 18, 17-(3,5-Difluoro-phenylethynyl)-11-(4-dimethylamino-phenyl)-17-hydroxy-13-methyl-1,2,8,11,12,13,14,15,16,17-decahydro-6H-7-oxa-cyclopenta[a]phenanthren-3-one], the negative logarithm of the IC50 (pIC50) was 9.04 in test [1] and 7.46 in test [2].

As for `Cc1ccc(C#C[C@]2(O)CC[C@H]3[C@@H]4OCC5=CC(=O)CCC5=C4[C@@H](c4ccc(N(C)C)cc4)C[C@@]32C)cc1` [Compound 7, 11-(4-Dimethylamino-phenyl)-17-hydroxy-13-methyl-17-p-tolylethynyl-1,2,8,11,12,13,14,15,16,17-decahydro-6H-7-oxa-cyclopenta[a]phenanthren-3-one], the pIC50 in test [1] was 8.80; in test [2], 7.66.

On to `CN(C)c1ccc([C@H]2C[C@@]3(C)[C@@H](CC[C@@]3(O)C#Cc3ccc(Cl)cc3)[C@@H]3OCC4=CC(=O)CCC4=C32)cc1` [Compound 12, 17-(4-Chloro-phenylethynyl)-11-(4-dimethylamino-phenyl)-17-hydroxy-13-methyl-1,2,8,11,12,13,14,15,16,17-decahydro-6H-7-oxa-cyclopenta[a]phenanthren-3-one], for which the pIC50 in test [1] was 9.21; in test [2], 7.36.

With `CN(C)c1ccc([C@H]2C[C@@]3(C)[C@@H](CC[C@@]3(O)C#Cc3cccc(F)c3)[C@@H]3OCC4=CC(=O)CCC4=C32)cc1` [Compound 17, 11-(4-Dimethylamino-phenyl)-17-(3-fluoro-phenylethynyl)-17-hydroxy-13-methyl-1,2,8,11,12,13,14,15,16,17-decahydro-6H-7-oxa-cyclopenta[a]phenanthren-3-one], the pIC50 in test [1] is 8.99; in test [2] it was 7.25.

As for `CN(C)c1ccc([C@H]2C[C@@]3(C)[C@@H](CC[C@@]3(O)C#Cc3ccccc3Cl)[C@@H]3OCC4=CC(=O)CCC4=C32)cc1` [Compound 19, 17-(2-Chloro-phenylethynyl)-11-(4-dimethylamino-phenyl)-17-hydroxy-13-methyl-1,2,8,11,12,13,14,15,16,17-decahydro-6H-7-oxa-cyclopenta[a]phenanthren-3-one], the results for the pIC50 in test [1] and in test [2] were 8.97 and 7.19, respectively.

As to `CN(C)CC#C[C@]1(O)CC[C@H]2[C@@H]3OCC4=CC(=O)CCC4=C3C(c3ccc(N(C)C)cc3)C[C@@]21C` (stereo partly drawn) [Compound 31], the pIC50 is under 6.00 in test [1] and under 5.52 in test [2].

In the case of `CN(C)c1ccc([C@H]2C[C@@]3(C)[C@@H](CC[C@@]3(O)C#Cc3ccc(C(F)(F)F)cc3)[C@@H]3OCC4=CC(=O)CCC4=C32)cc1` [Compound 9], the pIC50 is 9.13 in test [1] and 6.95 in test [2].

`CN(C)c1ccc(C2C[C@@]3(C)[C@@H](CC[C@@]3(O)C#Cc3ccc(C(C)(C)C)cc3)[C@@H]3OCC4=CC(=O)CCC4=C23)cc1` (stereo in doubt) [Compound 10, 17-(4-tert-Butyl-phenylethynyl)-11-(4-dimethylamino-phenyl)-17-hydroxy-13-methyl-1,2,8,11,12,13,14,15,16,17-decahydro-6H-7-oxa-cyclopenta[a]phenanthren-3-one]: the pIC50 is 7.71 in test [1] and 7.18 in test [2].

Consider `CN(C)c1ccc([C@H]2C[C@@]3(C)[C@@H](CC[C@@]3(O)C#Cc3ccccc3)[C@@H]3OCC4=CC(=O)CCC4=C32)cc1` [Compound 3, 11-(4-Dimethylamino-phenyl)-17-hydroxy-13-methyl-17-phenylethynyl-1,2,8,11,12,13,14,15,16,17-decahydro-6H-7-oxa-cyclopenta[a]phenanthren-3-one], for which the results for the pIC50 in test [1] and in test [2] were 8.86 and 6.52, respectively.

In the case of `CN(C)c1ccc([C@H]2C[C@@]3(C)[C@@H](CC[C@@]3(O)C#Cc3ccc(F)cc3)[C@@H]3OCC4=CC(=O)CCC4=C32)cc1` [Compound 8, 11-(4-Dimethylamino-phenyl)-17-(4-fluoro-phenylethynyl)-17-hydroxy-13-methyl-1,2,8,11,12,13,14,15,16,17-decahydro-6H-7-oxa-cyclopenta[a]phenanthren-3-one], the pIC50 in test [1] was 9.57; in test [2], 7.42.

As to `CN(C)c1ccc([C@H]2C[C@@]3(C)[C@@H](CC[C@@]3(O)C#Cc3ccsc3)[C@@H]3OCC4=CC(=O)CCC4=C32)cc1` [Compound 29, 11-(4-Dimethylamino-phenyl)-17-hydroxy-13-methyl-17-thiophen-3-ylethynyl-1,2,8,11,12,13,14,15,16,17-decahydro-6H-7-oxa-cyclopenta[a]phenanthren-3-one], the pIC50 in test [1] was 8.81; in test [2] it was 7.25.

`CN(C)c1ccc(C2C[C@@]3(C)[C@@H](CC[C@@]3(O)C#Cc3ccncc3)[C@@H]3OCC4=CC(=O)CCC4=C23)cc1` (stereo in doubt) [Compound 28, 11-(4-Dimethylamino-phenyl)-17-hydroxy-13-methyl-17-pyridin-4-ylethynyl-1,2,8,11,12,13,14,15,16,17-decahydro-6H-7-oxa-cyclopenta[a]phenanthren-3-one]: the pIC50 is 7.41 in test [1] and 6.61 in test [2].

`CN(C)c1ccc(C2C[C@@]3(C)[C@@H](CC[C@@]3(O)C#Cc3cccnc3)[C@@H]3OCC4=CC(=O)CCC4=C23)cc1` (stereo in doubt) [Compound 27, 11-(4-Dimethylamino-phenyl)-17-hydroxy-13-methyl-17-pyridin-3-ylethynyl-1,2,8,11,12,13,14,15,16,17-decahydro-6H-7-oxa-cyclopenta[a]phenanthren-3-one]: the pIC50 in test [1] was 7.68; in test [2] it was 6.47.

As for `COc1ccc(C#C[C@]2(O)CC[C@H]3[C@@H]4OCC5=CC(=O)CCC5=C4[C@@H](c4ccc(N(C)C)cc4)C[C@@]32C)cc1` [Compound 15, 11-(4-Dimethylamino-phenyl)-17-hydroxy-17-(4-methoxy-phenylethynyl)-13-methyl-1,2,8,11,12,13,14,15,16,17-decahydro-6H-7-oxa-cyclopenta[a]phenanthren-3-one], the pIC50 in test [1] was 8.49; in test [2], 7.10.

Take `Cc1ccccc1C#C[C@]1(O)CC[C@H]2[C@@H]3OCC4=CC(=O)CCC4=C3[C@@H](c3ccc(N(C)C)cc3)C[C@@]21C` [Compound 24, 11-(4-Dimethylamino-phenyl)-17-hydroxy-13-methyl-17-o-tolylethynyl-1,2,8,11,12,13,14,15,16,17-decahydro-6H-7-oxa-cyclopenta[a]phenanthren-3-one]: the pIC50 in test [1] is 8.24; in test [2] it was 6.95.

With `CN(C)c1ccc([C@H]2C[C@@]3(C)[C@@H](CC[C@@]3(O)C#CC3CC3)[C@@H]3OCC4=CC(=O)CCC4=C32)cc1` [Compound 2, 17-Cyclopropylethynyl-11-(4-dimethylamino-phenyl)-17-hydroxy-13-methyl-1,2,8,11,12,13,14,15,16,17-decahydro-6H-7-oxa-cyclopenta[a]phenanthren-3-one], the values for the pIC50 in test [1] and in test [2] were 8.02 and 7.48, respectively.

A word on the pIC50: it is −log10 of the IC50, conventionally taken in molar units. A high value points to a low IC50.
